From US9169241B2, “Quinolinyloxyphenylsulfonamides” (Max-Planck-Gesellschaft Zur Forderung der Wissenschaften …, priority 2009, dated 2015)
Like-named read-outs stand apart in the source and are kept apart here.

Experiments:
Type in all cases: cell-based
[1] = tested on: A172; test: Cell vitality assay (ATP assay, CellTiter-Glo); conditions: Homo sapiens, A 172; A172, 72 h; Table IIa; read-out: IC50 ATP-Assay after 72 h A172
Method in brief: (§1)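 1000 cells/well were exposed to compound at 12.5 μM down to 0.195 μM (twofold steps) or DMSO for 72 h. ATP was then measured by luminescence after 10 min reagent lysis at room temperature. IC50 was taken as the concentration giving 50% of the DMSO-control ATP level.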

[2] = tested on: C8161; test: Cell vitality assay (ATP assay, CellTiter-Glo); conditions: Homo sapiens; C8161, 72 h; Table IIa; read-out: IC50 ATP-Assay after 72 h C8161
Method in brief: as §1

[3] = tested on: SF763; test: Cell vitality assay (ATP assay, CellTiter-Glo); conditions: SF763, 72 h; Table IIa; read-out: IC50 ATP-Assay after 72 h SF763
Method in brief: as §1

[4] = tested on: U138; test: Cell vitality assay (ATP assay, CellTiter-Glo); conditions: U138, 72 h; Table IIa; read-out: IC50 ATP-Assay after 72 h U138
Method in brief: as §1

[5] = tested on: C8161; test: Apoptosis assay (Cellomics, nucleus condensation); conditions: Homo sapiens, Table III, read-out: Apoptosis induction in C8161
Method in brief: (§2)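 5000 cells/well, Hoechst 33342 live stain; cpd 12.5, 6.25, 3.125, 1.56, 0.78, 0.39 μM or DMSO; imaged 24 h + 48 h; nuclear condensation = intensity variation per nucleus; cell number loss noted.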

[6] = tested on: Hs578T; test: Apoptosis assay (Cellomics, nucleus condensation); conditions: Homo sapiens, Hs-578T, Table III, read-out: Apoptosis induction in Hs578T
Method in brief: as §2

[7] = tested on: SF126; test: Apoptosis assay (Cellomics, nucleus condensation); conditions: Homo sapiens, SF-126, Table III, read-out: Apoptosis induction in SF126
Method in brief: as §2

[8] = tested on: SF763; test: Apoptosis assay (Cellomics, nucleus condensation); conditions: Table III, read-out: Apoptosis induction in SF763
Method in brief: as §2

[9] = tested on: U118; test: Apoptosis assay (Cellomics, nucleus condensation); conditions: Table III, read-out: Apoptosis induction in U118
Method in brief: as §2

[10] = tested on: U138; test: Apoptosis assay (Cellomics, nucleus condensation); conditions: Table III, read-out: Apoptosis induction in U138
Method in brief: as §2

[11] = tested on: cells; test: Boyden chamber migration assay (Table VI); conditions: Homo sapiens, Hs-578T, 16 h, Hs578T cells; 16 h migration
Method in brief: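 20000 cells seeded in the upper compartment in 0% FCS plus 0.1% BSA and left 16 h to migrate through […] membrane toward 10% FCS medium below. Non-migrated cells swabbed off; cells on the filter underside fixed and counted.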

[12] = tested on: viable cells in culture; test: Cell viability assay at 10 μM (CellTiter-Glo, Table VII); conditions: compound 10 μM, 72 h;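 further: graded A 0-20%; B 21-40%; C 41-60%; D over 60% viable cells relative to DMSO control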
Method in brief: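 Viable cell number was measured with the CellTiter-Glo Luminescent Cell Viability Assay (Promega), following the manufacturer's protocol, which quantifies ATP as a marker of metabolically active cells. In 96-well plates, 1000 cells/well in 100 μl medium were exposed to compound at 10 μM, or to DMSO control, for 72 h. Values were calculated relative to DMSO-control ATP.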

[13] = tested on: MDA-MB231; test: Cell vitality assay (ATP assay, CellTiter-Glo); conditions: Homo sapiens, MDA-MB-231
Method in brief: as §1

[14] = Homo sapiens, HCT-116, HCT116 def, read-out: percentage (%) of viable cells HCT 116def
[15] = Homo sapiens, HCT-116, HCT116 wt, read-out: percentage (%) of viable cells HCT 116wt
[16] = Homo sapiens, HT-29, HT29, read-out: percentage (%) of viable cells HT29
[17] = Homo sapiens, NCI-H358, H358, read-out: percentage (%) of viable cells H358
[18] = Homo sapiens, NCI-H1650, H1650, read-out: percentage (%) of viable cells H1650
[19] = Homo sapiens, NCI-H1666, H1666, read-out: percentage (%) of viable cells H1666
[20] = Homo sapiens, NCI-H1975, H1975, read-out: percentage (%) of viable cells H1975
[21] = Homo sapiens, NCI-H1993, H1993, read-out: percentage (%) of viable cells H1993
[22] = Homo sapiens, A549, read-out: percentage (%) of viable cells A549
[23] = Homo sapiens, HCC827, read-out: percentage (%) of viable cells HCC827
[24] = Homo sapiens, SW480, read-out: percentage (%) of viable cells SW480
[25] = RKO, read-out: percentage (%) of viable cells RKO
[26] = cell vitality assay, MDA-MB231, Table IIc, read-out: IC50 MDA-MB231
[27] = MDA-MB231, 72 h, Table IIa, read-out: IC50 ATP-Assay after 72 h MDA-MB231

COc1cc2c(Oc3ccc(NS(=O)(=O)c4cccc(-c5ccccc5)c4)cc3F)ccnc2cc1OCCCN1CCCCC1 [Example 8, Biphenyl-3-sulfonic acid {3-fluoro-4-[6-methoxy-7-(3-piperidin-1-yl-propoxy)-quinolin-4-loxy]-phenyl}-amide]
IC50 [1]: ≤ 12.5 µM
IC50 [2]: ≤ 12.5 µM
IC50 [3]: ≤ 12.5 µM
IC50 [4]: ≤ 12.5 µM
IC50 [5]: ≤ 12.5 µM
IC50 [6]: ≤ 12.5 µM
IC50 [7]: ≤ 12.5 µM
IC50 [8]: ≤ 12.5 µM
IC50 [9]: ≤ 12.5 µM
IC50 [10]: 12.5 to 50 µM
IC50 [11]: ≤ 5 µM
viability at 10 µM [12, 14]: 0 to 20%
viability at 10 µM [12, 15]: 0 to 20%
viability at 10 µM [12, 16]: 21 to 40%
viability at 10 µM [12, 17]: 0 to 20%
viability at 10 µM [12, 18]: 0 to 20%
viability at 10 µM [12, 19]: 21 to 40%
viability at 10 µM [12, 20]: 0 to 20%
viability at 10 µM [12, 21]: 0 to 20%
viability at 10 µM [12, 22]: 41 to 60%
viability at 10 µM [12, 23]: 0 to 20%
viability at 10 µM [12, 24]: 0 to 20%
viability at 10 µM [12, 25]: 21 to 40%

COc1cc2c(Oc3ccc(NS(=O)(=O)c4cc(F)ccc4F)cc3F)ccnc2cc1OCCCN1CCN(C)CC1 [Example 12, 2,5-Difluoro-N-(3-fluoro-4-{6-methoxy-7-[3-(4-methyl-piperazin-1-yl)-propoxy]-quinolin-4-yloxy}-phenyl)-benzenesulfonamide]
IC50 [1]: ≤ 12.5 µM
IC50 [13, 26]: ≤ 12.5 µM
IC50 [5]: 12.5 to 50 µM
IC50 [11]: ≤ 5 µM
viability at 10 µM [12, 14]: 21 to 40%
viability at 10 µM [12, 15]: 21 to 40%
viability at 10 µM [12, 16]: 21 to 40%
viability at 10 µM [12, 17]: 0 to 20%
viability at 10 µM [12, 18]: 21 to 40%
viability at 10 µM [12, 19]: 41 to 60%
viability at 10 µM [12, 20]: 41 to 60%
viability at 10 µM [12, 21]: 41 to 60%
viability at 10 µM [12, 22]: > 60%
viability at 10 µM [12, 23]: 21 to 40%
viability at 10 µM [12, 24]: 21 to 40%
viability at 10 µM [12, 25]: 0 to 20%

COc1cc2c(Oc3ccc(NS(=O)(=O)c4ccccc4[N+](=O)[O-])cc3F)ccnc2cc1OCCCN1CCN(C)CC1 [Example 21, N-(3-Fluoro-4-{6-methoxy-7-[3-(4-methyl-piperazin-1-yl)-propoxy]-quinolin-4-yloxy}-phenyl)-2-nitro-benzenesulfonamide]
IC50 [2]: 12.5 to 50 µM
IC50 [13, 27]: 12.5 to 50 µM
IC50 [3]: 12.5 to 50 µM
IC50 [5]: ≤ 12.5 µM
IC50 [6]: ≤ 12.5 µM
IC50 [7]: ≤ 12.5 µM
IC50 [8]: ≤ 12.5 µM
IC50 [9]: ≤ 12.5 µM
IC50 [10]: 12.5 to 50 µM
IC50 [11]: ≤ 5 µM
viability at 10 µM [12, 14]: 41 to 60%
viability at 10 µM [12, 15]: > 60%
viability at 10 µM [12, 16]: 21 to 40%
viability at 10 µM [12, 17]: 21 to 40%
viability at 10 µM [12, 18]: 41 to 60%
viability at 10 µM [12, 19]: 41 to 60%
viability at 10 µM [12, 20]: 41 to 60%
viability at 10 µM [12, 21]: 21 to 40%
viability at 10 µM [12, 22]: > 60%
viability at 10 µM [12, 23]: > 60%
viability at 10 µM [12, 24]: 21 to 40%
viability at 10 µM [12, 25]: 41 to 60%

COc1cc2c(Oc3ccc(NS(=O)(=O)c4ccccc4C(F)(F)F)cc3F)ccnc2cc1OCCCN1CCN(C)CC1 [Example 24, N-(3-Fluoro-4-{6-methoxy-7-[3-(4-methyl-piperazin-1-yl)-propoxy]-quinolin-4-yloxy}-phenyl)-2-trifluoromethyl-benzenesulfonamide]
IC50 [13, 26]: ≤ 12.5 µM
IC50 [5]: ≤ 12.5 µM
IC50 [11]: ≤ 5 µM

COc1cc2c(Oc3ccc(NS(=O)(=O)c4ccccc4Cl)cc3F)ccnc2cc1OCCCN1CCN(C)CC1 [Example 29, 2-Chloro-N-(3-fluoro-4-{6-methoxy-7-[3-(4-methyl-piperazin-1-yl)-propoxy]-quinolin-4-yloxy}-phenyl)-benzenesulfonamide]
IC50 [2]: ≤ 12.5 µM
IC50 [13, 27]: ≤ 12.5 µM
IC50 [3]: 12.5 to 50 µM
IC50 [4]: ≤ 12.5 µM
IC50 [5]: ≤ 12.5 µM
IC50 [6]: ≤ 12.5 µM
IC50 [7]: ≤ 12.5 µM
IC50 [8]: ≤ 12.5 µM
IC50 [10]: 12.5 to 50 µM
IC50 [11]: ≤ 5 µM
viability at 10 µM [12, 14]: 0 to 20%
viability at 10 µM [12, 15]: 0 to 20%
viability at 10 µM [12, 16]: 0 to 20%
viability at 10 µM [12, 17]: 21 to 40%
viability at 10 µM [12, 18]: 21 to 40%
viability at 10 µM [12, 19]: 41 to 60%
viability at 10 µM [12, 20]: 0 to 20%
viability at 10 µM [12, 21]: 0 to 20%
viability at 10 µM [12, 22]: 41 to 60%
viability at 10 µM [12, 23]: 21 to 40%
viability at 10 µM [12, 24]: 0 to 20%
viability at 10 µM [12, 25]: 0 to 20%

COC(=O)c1sccc1S(=O)(=O)Nc1ccc(Oc2ccnc3cc(OCCCN4CCCC(C)C4)c(OC)cc23)c(F)c1 (centres unmarked) [Example 66, 3-(3-Fluoro-4-{6-methoxy-7-[3-(3-methyl-piperidin-1-yl)-propoxy]-quinolin-4-yloxy}-phenylsulfamoyl)-thiophene-2-carboxylic acid methyl ester]
IC50 [1]: ≤ 12.5 µM
IC50 [13, 26]: ≤ 12.5 µM

COc1cc2c(Oc3ccc(NS(=O)(=O)c4ccccc4C(F)(F)F)cc3F)ccnc2cc1OCCCN(C)C [Example 100, N-{4-[7-(3-Dimethylamino-propoxy)-6-methoxy-quinolin-4-yloxy]-3-fluoro-phenyl}-2-trifluoromethyl-benzenesulfonamide]
IC50 [1]: ≤ 12.5 µM
IC50 [5]: ≤ 12.5 µM
IC50 [6]: ≤ 12.5 µM
IC50 [7]: ≤ 12.5 µM
IC50 [8]: ≤ 12.5 µM
IC50 [9]: 12.5 to 50 µM
IC50 [10]: ≤ 12.5 µM
viability at 10 µM [12, 14]: 0 to 20%
viability at 10 µM [12, 15]: 0 to 20%
viability at 10 µM [12, 16]: 21 to 40%
viability at 10 µM [12, 17]: 0 to 20%
viability at 10 µM [12, 18]: 21 to 40%
viability at 10 µM [12, 19]: 21 to 40%
viability at 10 µM [12, 20]: 41 to 60%
viability at 10 µM [12, 21]: 41 to 60%
viability at 10 µM [12, 22]: > 60%
viability at 10 µM [12, 23]: 21 to 40%
viability at 10 µM [12, 24]: 0 to 20%
viability at 10 µM [12, 25]: 0 to 20%
